Data reported in patent US20250290117A1, “MOLECULAR PHENOTYPIC ANTIMICROBIAL SUSCEPTIBILITY TESTING” (priority 2024, published 2025).

Key:
Assay type in all cases: cell-based
[1] = tested on: pathogens of clinical samples; test: Molecular phenotypic antimicrobial susceptibility test of clinical samples, extraction DNA purification step prior to PCR (Table 6)
Description: (§1) Detection of Molecular Phenotypic Antimicrobial Susceptibility. Disclosed herein are the methods for the detection of phenotypic antimicrobial susceptibility via molecular methods. The present invention describes how a specimen 100 with a known microbial load is incubated and then exposed to a panel of antimicrobial agents to determine sensitivity (prevention of growth) or resistance (allowance of growth) to the specific antimicrobial agents tested utilizing molecular methods.
(§2) Sample Collection. Specimens 100 are collected from patients using sterile collection processes that are employed in routine clinical care. Specimens are transported to the testing facility in boric acid preservative.
(§3) Preparation of the Specimens for Testing. […] The process for pathogen isolation includes steps of harvesting the pathogen (e.g., via centrifugation), isolating pathogen DNA via a DNA isolation and/or purification kit, and performing PCR on the pathogen DNA via PCR components (e.g., primers, enzymes, buffers) as would be known to the skilled artisan. […] This aliquot is used for antimicrobial susceptibility testing if indicated based on the pathogen detection results. […] Specimens 100 with lower pathogen loads could also be utilized in the antibiotic susceptibility phase of testing with or without a longer incubation period.
(§4) Preparation of Antimicrobial Susceptibility Testing Plates. Antimicrobial solutions are prepared at known concentrations. The specific antimicrobials and their concentrations are selected based on the pathogen of interest and the described antimicrobial resistance breakpoints for that specimen pathogen and antimicrobial combination. These antimicrobials have been selected based on those commonly utilized by healthcare providers in routine clinical care for the specific type of suspected infection. The number and types of antimicrobials utilized can be customized based on the infection source, pathogen detected, patient-specific factors such as allergies or other health conditions (e.g., chronic kidney disease or concurrent medication use), or healthcare provider preferences such as antimicrobial availability or cost.
(§5) The antimicrobial solutions are prepared in liquid culture media (such as Muller Hinton Broth) to achieve the desired antimicrobial concentration and are then stored at −80° C. until use. For a given specimen, each antimicrobial is tested at a single or multiple antimicrobial concentration(s) which is its established breakpoints for sensitivity. The antimicrobial solutions are prepared and plated out for each specific pathogen. […] This allows for evaluation of pathogen load when no antimicrobial is present.
(§6) Specimen Exposure to Antimicrobial Agents. The 1 mL aliquot of the specimen 100 previously mixed with culture media and incubated is obtained. Using optical density measurements as a guide, the specimen 100 is diluted to 0.5 McFarland.
(§7) Antimicrobial exposure plates are typically placed into an incubator for 12-16 hours.
(§8) Nucleic Acid Amplification of Antimicrobial Agent Exposed Pathogens. The antimicrobial exposure plate is removed after the period of incubation. The specimen then undergoes a purification or lysis step. For example, the specimen may undergo a purification step (e.g., magnetic bead-based or other separation protocol to isolate genetic material). In another example, the specimen may undergo a cell lysis step. For example, buffer (e.g., lysis buffer) may be added and incubated in the thermal cycler for preparation for direct PCR. Next, the specimen may undergo a polymerase chain reaction (PCR) testing protocol, whereby a semi-quantitative PCR method is utilized. This may be completed either with or without a specific extraction protocol step. The pathogens can be individually targeted and detected, or a universal genetic sequence can be utilized to detect the antimicrobial susceptibility of the specimen as a whole.

Escherichia coli = test: Molecular phenotypic antimicrobial susceptibility test (extraction or DNA purification prior to PCR)
Description: as §1, §2, §3, §4, §5, §6, §7, §8

[2] = tested on: pathogens of clinical samples; test: Molecular phenotypic antimicrobial susceptibility test of clinical samples, direct PCR without a separate DNA purification step (Table 6)
Description: as §1, §2, §3, §4, §5, §6, §7, §8

[3] = E. coli, clinical sample of r10-r24
[4] = E. coli, clinical sample of r158-r172
[5] = E. faecalis, clinical sample of r93-r99
[6] = E. faecalis, clinical sample of r114-r120
[7] = E. faecalis, clinical sample of r151-r157
[8] = K. aerogenes, clinical sample of r136-r150
[9] = K. pneumoniae, clinical sample of r121-r135
[10] = M. morganii, clinical sample of r55-r69
[11] = M. morganii, clinical sample of r70-r84
[12] = P. mirabilis, clinical sample of r25-r39
[13] = P. mirabilis, clinical sample of r40-r54
[14] = S. aureus, clinical sample of r85-r92

SMILES: C[C@H]1COc2c(N3CCN(C)CC3)c(F)cc3c(=O)c(C(=O)O)cn1c23 [Levofloxacin]
- Molecular Antibiotic Susceptibility Result [1, 3]: Resistant
- Ct ([1]; E. coli, clinical sample of r10-r24, Ct Control Avg 18.112): 17.903
- Molecular Antibiotic Susceptibility Result [1, 4]: Sensitive (Antimicrobial wells with pathogen load detected below the control wells (typically >2 cycle thresholds later) may be reported as Sensitive)
- Ct ([1]; E. coli, clinical sample of r158-r172, Ct Control Avg 20.146): 34.012
- Molecular Antibiotic Susceptibility Result [1, 5]: Sensitive (Antimicrobial wells with pathogen load detected below the control wells (typically >2 cycle thresholds later) may be reported as Sensitive)
- Ct ([1]; E. faecalis, clinical sample of r93-r99, Ct Control Avg 22.987): 37.857
- Ct ([1]; E. faecalis, clinical sample of r100-r106, Ct Control Avg 23.073): 38.337
- Ct ([1]; E. faecalis, clinical sample of r107-r113, Ct Control Avg 22.144): 29.347
- Molecular Antibiotic Susceptibility Result [1, 6]: Sensitive (Antimicrobial wells with pathogen load detected below the control wells (typically >2 cycle thresholds later) may be reported as Sensitive)
- Ct ([1]; E. faecalis, clinical sample of r114-r120, Ct Control Avg 20.822): 32.971
- Molecular Antibiotic Susceptibility Result [1, 7]: Sensitive (Antimicrobial wells with pathogen load detected below the control wells (typically >2 cycle thresholds later) may be reported as Sensitive)
- Ct ([1]; E. faecalis, clinical sample of r151-r157, Ct Control Avg 20.56): 37.926
- Molecular Antibiotic Susceptibility Result [1, 8]: Sensitive (Antimicrobial wells with pathogen load detected below the control wells (typically >2 cycle thresholds later) may be reported as Sensitive)
- Ct ([1]; K. aerogenes, clinical sample of r136-r150, Ct Control Avg 19.994): 38.019
- Molecular Antibiotic Susceptibility Result [1, 9]: Sensitive (Antimicrobial wells with pathogen load detected below the control wells (typically >2 cycle thresholds later) may be reported as Sensitive)
- Ct ([1]; K. pneumoniae, clinical sample of r121-r135, Ct Control Avg 24.272): 34.466
- Molecular Antibiotic Susceptibility Result [1, 10]: Sensitive (Antimicrobial wells with pathogen load detected below the control wells (typically >2 cycle thresholds later) may be reported as Sensitive)
- Molecular Antibiotic Susceptibility Result [1, 11]: Sensitive (Antimicrobial wells with pathogen load detected below the control wells (typically >2 cycle thresholds later) may be reported as Sensitive)
- Ct ([1]; M. morganii, clinical sample of r70-r84, Ct Control Avg 27.053): 37.67
- Molecular Antibiotic Susceptibility Result [1, 12]: Sensitive (Antimicrobial wells with pathogen load detected below the control wells (typically >2 cycle thresholds later) may be reported as Sensitive)
- Ct ([1]; P. mirabilis, clinical sample of r25-r39, Ct Control Avg 26.064): 33.029
- Molecular Antibiotic Susceptibility Result [1, 13]: Sensitive (Antimicrobial wells with pathogen load detected below the control wells (typically >2 cycle thresholds later) may be reported as Sensitive)
- Ct ([1]; P. mirabilis, clinical sample of r40-r54, Ct Control Avg 26.987): 33.384
- Molecular Antibiotic Susceptibility Result [1, 14]: Resistant
- Ct ([1]; S. aureus, clinical sample of r85-r92, Ct Control Avg 24.32): 19.106
- Ct at Sensitive Breakpoint (Escherichia coli; E. coli isolate 1, Ct at control (average) 21.238): 20.768
- Molecular Antimicrobial Susceptibility Result (Escherichia coli; E. coli isolate 1, at sensitive breakpoint): Resistant
- Ct at Sensitive Breakpoint (Escherichia coli; E. coli isolate 2, Ct at control (average) 21.270): 19.100
- Molecular Antimicrobial Susceptibility Result (Escherichia coli; E. coli isolate 2, at sensitive breakpoint): Resistant
- Ct at Sensitive Breakpoint (Escherichia coli; E. coli isolate 3, Ct at control (average) 22.0995): 29.342
- Molecular Antimicrobial Susceptibility Result (Escherichia coli; E. coli isolate 3, at sensitive breakpoint): Resistant
- Ct at Sensitive Breakpoint (Escherichia coli; E. coli isolate 4, Ct at control (average) 17.5733): 17.88
- Molecular Antimicrobial Susceptibility Result (Escherichia coli; E. coli isolate 4, at sensitive breakpoint): Resistant
- Ct at Sensitive Breakpoint (Escherichia coli; E. coli isolate 5, Ct at control (average) 21.0933): 33.85
- Molecular Antimicrobial Susceptibility Result (Escherichia coli; E. coli isolate 5, at sensitive breakpoint): Sensitive (Antimicrobial wells with pathogen load detected below the control wells (typically >2 cycle thresholds later) may be reported as Sensitive)
- Molecular Antibiotic Susceptibility Result [2, 3]: Resistant
- Ct ([2]; E. coli, clinical sample of r10-r24, Ct control avg 12.97): 12.289
- Molecular Antibiotic Susceptibility Result [2, 4]: Sensitive (Antimicrobial wells with pathogen load detected below the control wells (typically >2 cycle thresholds later) may be reported as Sensitive)
- Ct ([2]; E. coli, clinical sample of r158-r172, Ct control avg 12.894): 29.603
- Molecular Antibiotic Susceptibility Result [2, 5]: Sensitive (Antimicrobial wells with pathogen load detected below the control wells (typically >2 cycle thresholds later) may be reported as Sensitive)
- Ct ([2]; E. faecalis, clinical sample of r93-r99, Ct control avg 22.011): 33.342
- Ct ([2]; E. faecalis, clinical sample of r100-r106, Ct control avg 21.027): 34.507
- Ct ([2]; E. faecalis, clinical sample of r107-r113, Ct control avg 20.529): 28.107
- Molecular Antibiotic Susceptibility Result [2, 6]: Sensitive (Antimicrobial wells with pathogen load detected below the control wells (typically >2 cycle thresholds later) may be reported as Sensitive)
- Ct ([2]; E. faecalis, clinical sample of r114-r120, Ct control avg 20.909): 30.072
- Molecular Antibiotic Susceptibility Result [2, 7]: Sensitive (Antimicrobial wells with pathogen load detected below the control wells (typically >2 cycle thresholds later) may be reported as Sensitive)
- Ct ([2]; E. faecalis, clinical sample of r151-r157, Ct control avg 18.551): 35.719
- Molecular Antibiotic Susceptibility Result [2, 8]: Sensitive (Antimicrobial wells with pathogen load detected below the control wells (typically >2 cycle thresholds later) may be reported as Sensitive)
- Ct ([2]; K. aerogenes, clinical sample of r136-r150, Ct control avg 13.854): 33.354
- Molecular Antibiotic Susceptibility Result [2, 9]: Sensitive (Antimicrobial wells with pathogen load detected below the control wells (typically >2 cycle thresholds later) may be reported as Sensitive)
- Ct ([2]; K. pneumoniae, clinical sample of r121-r135, Ct control avg […]): 32.085
- Molecular Antibiotic Susceptibility Result [2, 10]: Sensitive (Antimicrobial wells with pathogen load detected below the control wells (typically >2 cycle thresholds later) may be reported as Sensitive)
- Molecular Antibiotic Susceptibility Result [2, 11]: Sensitive (Antimicrobial wells with pathogen load detected below the control wells (typically >2 cycle thresholds later) may be reported as Sensitive)
- Ct ([2]; M. morganii, clinical sample of r70-r84, Ct control avg 11.677): 29.614
- Molecular Antibiotic Susceptibility Result [2, 12]: Sensitive (Antimicrobial wells with pathogen load detected below the control wells (typically >2 cycle thresholds later) may be reported as Sensitive)
- Ct ([2]; P. mirabilis, clinical sample of r25-r39, Ct control avg 11.801): 25.775
- Molecular Antibiotic Susceptibility Result [2, 13]: Sensitive (Antimicrobial wells with pathogen load detected below the control wells (typically >2 cycle thresholds later) may be reported as Sensitive)
- Ct ([2]; P. mirabilis, clinical sample of r40-r54, Ct control avg 10.06): 30.018
- Molecular Antibiotic Susceptibility Result [2, 14]: Resistant
- Ct ([2]; S. aureus, clinical sample of r85-r92, Ct control avg 20.309): 16.32
